# Test results as given in patent US6194416A, “Heterocyclic compounds and their use” (Eli Lilly and Company, priority 1997, dated 2001).
# pIC50, pKi: −log10 of the molar value.
# Tests used:
# [1] = biological target: T1, muscarinic receptors (M1-site, pirenzepine sensitive site) (Rattus norvegicus, UniProt P08482); assay: Inhibition of 3HPRZ (pirenzepine, [N-methyl-3H]) binding to rat cerebral cortex membranes; set-up: species or system male Wistar rats; settings: rat cerebral cortex, 1.0 nM 3HPRZ, 60 min, 20° C., pH 7.4; read-out: 3HPRZ IC50
# T1 construct: from tissue; host or cells: cerebral cortex membranes of male Wistar rats
# T1 sequence (P08482 1-460): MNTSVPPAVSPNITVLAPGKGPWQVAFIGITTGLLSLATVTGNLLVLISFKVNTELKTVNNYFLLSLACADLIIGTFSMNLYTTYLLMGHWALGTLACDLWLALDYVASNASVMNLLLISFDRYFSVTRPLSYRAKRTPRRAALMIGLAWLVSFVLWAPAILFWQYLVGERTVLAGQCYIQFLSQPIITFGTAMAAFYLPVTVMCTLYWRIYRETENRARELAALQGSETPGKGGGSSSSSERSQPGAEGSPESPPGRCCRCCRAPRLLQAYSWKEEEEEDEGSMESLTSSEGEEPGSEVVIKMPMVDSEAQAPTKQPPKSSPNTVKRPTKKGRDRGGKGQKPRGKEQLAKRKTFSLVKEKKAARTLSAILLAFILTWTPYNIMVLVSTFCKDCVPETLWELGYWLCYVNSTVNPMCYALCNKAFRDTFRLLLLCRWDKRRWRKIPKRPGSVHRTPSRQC
# Description: Furthermore the pharmacological properties of the compounds of the invention can also be illustrated by determining their capability to inhibit ^3 HPRZ (pirenzepine, [N-methyl-^3 H]) binding to rat cerebral cortex membranes.
# Pirenzepine binds selectively to subtype of muscarinic receptors. Historically the type is named the M1 -site, whereas pirenzepine sensitive site would be more appropriate.
# (§1) All preparations are performed at 0-4° C. unless otherwise indicated. Fresh cortex (0.1-19) from male Wistar rats (150-200 g) is homogenized for 5-10 s in 10 mL 20 mM Hepes pH: 7.4, with an Ultra-Turrax homogenizer. The homogenizer is rinsed with 2×10 mL of buffer and the combined suspension centrifuged for 15 min. at 40,000×g. The pellet is washed three times with buffer. In each step the pellet is homogenized as before in 3×10 mL of buffer and centrifuged for 10 min. at 40,000×g.
# The final pellet is homogenized in 20 MM Hepes pH: 7.4 (100 mL per g of original tissue) and used for binding assay. Aliquots of 0.5 mL is added 20 μL of test solution and 25 μL of ^3 HPRZ (1.0 nM, final conc.), mixed and incubated for 60 min. at 20° C. Non-specific binding is determined in triplicate using atropine (1.0 μg/mL, final conc.) as the test substance. After incubation samples are added 5 mL of ice-cold buffer and poured directly onto Whatman GF/C glass fiber filters under suction and immediately washed 2 times with 5 mL of ice-cold buffer.
# The amount of radioactivity on the filters are determined by conventional liquid scintillation counting. Specific binding is total binding minus non-specific binding.
# Test substances are dissolved in 10 mL water, at a concentration of 0.22 mg/mL. 25-75% inhibition of specific binding must be obtained before calculation of IC50.
# The test value will be given as IC50 (the concentration (nM) of the test substance which inhibits the specific binding of ^3 HPRZ by 50%). IC50 =(applied test substance concentration) x(Cx /Co -Cx)nM where Co is specific binding in control assays and Cx is the specific binding in the test assay. (The calculations assume normal mass-action kinetics).
# nicotinic receptors = assay: Nicotinic channel receptor binding: [3H]-cystine binding to crude synaptic membranes from whole rat brain; settings: 1.25 nM [3H-cystine], about 60 min, about 4° C.
# Description: Nicotinic Channel Receptor Binding Protocol:
# The activity of the compounds claimed herein at the nicotinic receptor can be accomplished by the following assay.
# Binding of […] to nicotinic receptors was accomplished using crude synaptic membrane preparations from whole rat brain (Pabreza et al. Molecular Pharmacol., 1990, 39:9). Washed membranes were stored at about -80° C. prior to use. Frozen aliquots were slowly thawed and resuspended in 20 volumes of buffer (containing: […] NaCl, 5 mM KCl, 2 mM MgCl2, 2 mM Tris-Cl, ph 7.4 @4° C.). After centrifuging at 20,000×g for 15 minutes, the pellets were resuspended in about 30 volumes of buffer. Homogenate (containing about 125-150 ug protein) was added to tubes containing concentrations of test compound and [^3 H-cystine] (1.25 nM) in a final volume of 500 uL. Samples were incubated for about 60 minutes at about 4° C., then rapidly filtered through GF/B filters presoaked in 0.5% polyethylimine using 3×4 mL of ice cold buffer. The filters were counted.
# [2] = biological target: muscarinic acetylcholine receptors; assay: Inhibition of specific binding of 3H-Oxotremorine-M (3H-Oxo) to rat cortex membranes; set-up: species or system male Wistar rats; settings: 1.0 nM 3H-Oxotremorine, 30 min, 25° C., pH 7.4
# From the text: The pharmacological properties of the compounds of the invention can be illustrated by determining their capability to inhibit the specific binding of ^3 H-Oxotremorine-M (^3 H-Oxo). Birdsdall N. J. M., Hulme E. C., and Burgen A. S. V. (1980). "The Character of Muscarinic Receptors in Different Regions of the Rat Brain". Proc. Roy. Soc. London (Series B) 207,1.
# ^3 H-Oxo labels muscarinic receptor in the CNS (with a preference for agonist domains of the receptors). Three different sites are labeled by ^3 H-Oxo. […] Using the present experimental conditions only the high and medium affinity sites are determined.
# The inhibitory effects of compounds on ^3 H-oxo binding reflects the affinity for muscarinic acetylcholine receptors.
# as §1, with “(0.1-1 g)” for “(0.1-19)”, “(150-250” for “(150-200”, “[…]” for “mM”, “10” for “2×10”, “2×10” for “3×10”
# The final pellet is homogenized in 20 mM Hepes pH: 7.4 (100 mL per g of original tissue) and used for binding assay. Aliquots of 0.5 mL is added 25 μL of test solution and 25 μL of ^3 H-Oxotremorine (1.0 nM, final concentration) mixed and incubated for 30 min. at 25° C. Non-specific binding is determined in triplicate using arecoline (1 μg/mL, final concentration) as the test substance. After incubation samples are added 5 mL of ice-cold buffer and poured directly onto Whatman GF/C glass fiber filters under suction and immediately washed 2 times with 5 mL of ice-cold buffer. The amount of radioactivity on the filters are determined by conventional liquid scintillation counting. Specific binding is total binding minus non specific binding.
# Test substances are dissolved in 10 mL water (if necessary heated on a steam-bath for less than 5 min.) at a concentration of 2.2 mg/mL. 25-75% inhibition of specific binding must be obtained before calculation of IC50. The test value will be given as IC50 (the concentration (nM) of the test substance which inhibits the specific binding of ^3 H-oxo by 50%). IC50 =(applied test substance concentration) x([…])nM where Co is specific binding in control assays and Cx is the specific binding in the test assay. (The calculations assume normal mass-action kinetics).
# [3] = tested on: M2-sites of muscarinic receptors; settings: general statement; cited from earlier work
# [4] = tested on: M1-sites of muscarinic receptors; settings: general statement; cited from earlier work
SMILES,pIC50 [1],pKi (nicotinic receptors),pIC50 [2],interaction with M2-sites [3],muscarinic subtype selectivity [4]
"c1cnc(O[C@H]2CN3CCC[C@@H]2C3)cn1 (relative stereo) [Compound 21, 2-[endo-(+,-)-6-(1-azabicyclo[3.2.1]octyloxy)]-pyrazine]",6.91,6.89,7.59,–,–
CN1CCN(CC(=O)N2c3ccccc3C(=O)Nc3cccnc32)CC1 [pirenzepine],–,–,–,also interact with M2 -sites,selective for M1 -sites
"Clc1cncc(O[C@@H]2CN3CCC[C@H]2C3)n1 (relative stereo) [Compound 22, 6-Chloro-2-[endo-(+,-)-6-(1-azabicyclo[3.2.1]octyloxy)]-pyrazine]",7.28,6.68,6.85,–,–
"CN(C)CCOc1cnccn1 [Compound 26, 2-(2-Dimethylaminoethoxy)pyrazine]",–,6.89,–,–,–
